According to the NIST ThermoML archive (doi:10.1021/je8003832):

Assay: xn = mol fraction of the nth substance listed
Settings: 101 kPa, Liquid

CCCCn1cc[n+](C)c1.O=S(=O)([O-])C(F)(F)F [1-butyl-3-methylimidazolium trifluoromethanesulfonate] + O
Settings | mass density [kg/m3] | viscosity [mPa·s]
303.15 K, x2 = 0 | 1298.4 | 63.19
303.15 K, x2 = 0.1032 | 1294.5 | 45.7
303.15 K, x2 = 0.1939 | 1291.2 | 35.41
303.15 K, x2 = 0.2987 | 1286.5 | 28.97
303.15 K, x2 = 0.3999 | 1280.8 | 23.25
303.15 K, x2 = 0.501 | 1272.8 | 19.19
303.15 K, x2 = 0.5923 | 1263 | 15.47
303.15 K, x2 = 0.7023 | 1246.2 | 11.56
303.15 K, x2 = 0.799 | 1220.1 | 8.206
303.15 K, x2 = 0.901 | 1164.6 | 4.552
308.15 K, x2 = 0 | 1294.9 | 51.73
308.15 K, x2 = 0.1032 | 1291 | 37.23
308.15 K, x2 = 0.1939 | 1287.7 | 29.27
308.15 K, x2 = 0.2987 | 1283 | 24.28
308.15 K, x2 = 0.3999 | 1277.3 | 19.95
308.15 K, x2 = 0.501 | 1269.3 | 16.8
308.15 K, x2 = 0.5923 | 1259.5 | 13.2
308.15 K, x2 = 0.7023 | 1242.5 | 10.13
308.15 K, x2 = 0.799 | 1216.6 | 6.932
308.15 K, x2 = 0.901 | 1160.6 | 3.869
313.15 K, x2 = 0 | 1291.4 | 42.46
313.15 K, x2 = 0.1032 | 1287.5 | 30.93
313.15 K, x2 = 0.1939 | 1284.1 | 24.46
313.15 K, x2 = 0.2987 | 1279.4 | 20.53
313.15 K, x2 = 0.3999 | 1273.8 | 16.88
313.15 K, x2 = 0.501 | 1265.7 | 13.95
313.15 K, x2 = 0.5923 | 1255.9 | 11.21
313.15 K, x2 = 0.7023 | 1238.8 | 8.605
313.15 K, x2 = 0.799 | 1212.9 | 5.989
313.15 K, x2 = 0.901 | 1156.7 | 3.376
318.15 K, x2 = 0 | 1287.8 | 35.17
318.15 K, x2 = 0.1032 | 1283.8 | 25.04
318.15 K, x2 = 0.1939 | 1280.4 | 20.79
318.15 K, x2 = 0.2987 | 1275.8 | 17.55
318.15 K, x2 = 0.3999 | 1270.2 | 14.38
318.15 K, x2 = 0.501 | 1262 | 12
318.15 K, x2 = 0.5923 | 1252.2 | 9.907
318.15 K, x2 = 0.7023 | 1234.9 | 7.465
318.15 K, x2 = 0.799 | 1208.9 | 5.339
318.15 K, x2 = 0.901 | 1153 | 3.156
323.15 K, x2 = 0 | 1284.4 | 29.55
323.15 K, x2 = 0.1032 | 1280.3 | 21.51
323.15 K, x2 = 0.1939 | 1276.8 | 18.11
323.15 K, x2 = 0.2987 | 1272.2 | 15.17
323.15 K, x2 = 0.3999 | 1266.5 | 12.62
323.15 K, x2 = 0.501 | 1258.3 | 10.42
323.15 K, x2 = 0.5923 | 1248.5 | 8.516
323.15 K, x2 = 0.7023 | 1231.1 | 6.576
323.15 K, x2 = 0.799 | 1205.2 | 4.57
323.15 K, x2 = 0.901 | 1150 | 3.005
333.15 K, x2 = 0 | 1277.4 | 21.61
333.15 K, x2 = 0.1032 | 1273.1 | 16.07
333.15 K, x2 = 0.1939 | 1269.7 | 13.51
333.15 K, x2 = 0.2987 | 1265 | 11.61
333.15 K, x2 = 0.3999 | 1259.3 | 9.88
333.15 K, x2 = 0.501 | 1251.1 | 8.101
333.15 K, x2 = 0.5923 | 1241.3 | 6.702
333.15 K, x2 = 0.7023 | 1223.4 | 5.137
333.15 K, x2 = 0.799 | 1197.2 | 3.618
333.15 K, x2 = 0.901 | 1142.6 | 2.099
343.15 K, x2 = 0 | 1270.5 | 16.38
343.15 K, x2 = 0.1032 | 1266 | 12.44
343.15 K, x2 = 0.1939 | 1262.6 | 10.54
343.15 K, x2 = 0.2987 | 1257.9 | 9.137
343.15 K, x2 = 0.3999 | 1252.2 | 7.816
343.15 K, x2 = 0.501 | 1244 | 6.612
343.15 K, x2 = 0.5923 | 1233.9 | 5.384
343.15 K, x2 = 0.7023 | 1215.6 | 4.24
343.15 K, x2 = 0.799 | 1189.3 | 2.936
343.15 K, x2 = 0.901 | 1134.3 | 1.714
